Laboratory results: PubChem BioAssay AID1645866 (Buhrlage Lab, Dana-Farber Cancer Institute and Novartis …, 2021)
Active and inactive are the calls of the source.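 How the source made its calls: active means in confirmatory dose-response testing, peak deubiquitinase inhibition of 30% or more; inactive means the rest.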 Positions of bridges follow the written chain, without caps; N, C: chain ends. Residues, ends and D or L forms follow the SMILES beside them. ξ: configuration not given here. *: point of attachment. Pentadecanoyl(3ξ-OH,15-Gua) = N=C(N)NCCCCCCCCCCCCC(O)CC(=O)*

Molecular target: Ubiquitin carboxyl-terminal hydrolase 28 (Homo sapiens) (UniProt Q96RU2)
Test: Concentration-response biochemical assay confirming initial hits as inhibitors of ubiquitin-specific protease 28 (AID 1645866)
Details: purified USP28, ubiquitin-rhodamine fluorescence, 30 min

Sequence of Ubiquitin carboxyl-terminal hydrolase 28 (Homo sapiens) (Q96RU2 whole entry, looked up): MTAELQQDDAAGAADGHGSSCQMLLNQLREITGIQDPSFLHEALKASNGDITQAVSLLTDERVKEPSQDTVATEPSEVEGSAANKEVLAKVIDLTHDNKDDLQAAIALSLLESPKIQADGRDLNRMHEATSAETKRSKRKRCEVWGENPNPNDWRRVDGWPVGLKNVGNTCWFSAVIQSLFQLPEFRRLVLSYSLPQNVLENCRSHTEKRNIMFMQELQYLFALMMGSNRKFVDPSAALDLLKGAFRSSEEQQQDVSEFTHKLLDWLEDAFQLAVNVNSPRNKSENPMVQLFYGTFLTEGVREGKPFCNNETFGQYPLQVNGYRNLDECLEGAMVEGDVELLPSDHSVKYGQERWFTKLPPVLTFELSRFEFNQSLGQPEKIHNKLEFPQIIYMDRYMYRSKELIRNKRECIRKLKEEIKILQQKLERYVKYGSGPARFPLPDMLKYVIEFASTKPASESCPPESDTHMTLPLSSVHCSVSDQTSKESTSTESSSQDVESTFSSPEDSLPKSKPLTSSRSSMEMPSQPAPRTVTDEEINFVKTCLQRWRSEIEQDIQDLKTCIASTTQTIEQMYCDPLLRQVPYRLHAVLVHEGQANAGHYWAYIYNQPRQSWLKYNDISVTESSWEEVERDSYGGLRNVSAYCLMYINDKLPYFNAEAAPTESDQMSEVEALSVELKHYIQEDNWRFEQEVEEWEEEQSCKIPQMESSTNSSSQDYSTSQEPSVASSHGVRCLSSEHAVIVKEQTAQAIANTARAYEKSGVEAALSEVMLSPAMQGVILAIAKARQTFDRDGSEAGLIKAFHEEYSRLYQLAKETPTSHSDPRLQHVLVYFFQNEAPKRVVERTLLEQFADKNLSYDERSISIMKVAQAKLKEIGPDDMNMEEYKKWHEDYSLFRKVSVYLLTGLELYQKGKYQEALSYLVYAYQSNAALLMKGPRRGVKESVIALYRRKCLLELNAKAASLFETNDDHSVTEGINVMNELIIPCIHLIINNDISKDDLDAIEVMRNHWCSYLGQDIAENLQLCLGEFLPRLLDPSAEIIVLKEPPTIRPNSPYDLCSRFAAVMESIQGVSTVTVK

Structure (SMILES)	IC50
CC1NC(=O)C(CC(N)=O)NC(=O)C(C(C)O)NC(=O)C(Cc2ccc(O)cc2)NC(=O)C(C(C)C)NC(=O)C(NC(=O)CC(O)CCCCCCCCCCCCN=C(N)N)C(C)OC1=O (configuration not stated) ({Pentadecanoyl(3ξ-OH,15-Gua)}-TVYTNA; ester 1-C; configuration not given here)	3.63 µM
COc1ccc(-c2cc(-c3nnc4n3CCCCC4)n(-c3ccccc3)n2)cc1	20.1 µM
O=C(Nc1ccc(Br)cn1)c1nc2ccccc2nc1N1CCCCC1	> 50 µM (inactive)
O=C(COc1cccc(C(=O)NCc2ccccc2)c1)Nc1ccc(Oc2ccccc2)cc1	27.9 µM
CCc1ccc(NC(=O)CN=C2NS(=O)(=O)C(c3ccc(CC)cc3)=C2C)cc1	21.7 µM
COc1cccc(C(=O)NCC(=O)Nc2nc3ccccc3[nH]2)c1	43.8 µM
Cc1cccc(NC(=O)Nc2nnc(CC(=O)NCc3ccccc3)s2)c1	11.3 µM
CC1(C)C[C@@H](O)[C@]2(C)CC[C@]3(C)C(=CCC4[C@@]5(C)CC[C@H](O)[C@](C)(CO)[C@@H]5CC[C@]43C)[C@@H]2C1 (some centres not stated)	> 50 µM (inactive)
CCOC(=O)c1sc2c(c1C)c(=O)n(Cc1ccccc1)c(=O)n2CC(N)=O	22.2 µM
O=[N+]([O-])c1ccccc1C(c1c[nH]c2ccccc12)c1c[nH]c2ccccc12	23.8 µM
COc1ccc(Cl)cc1NC(=O)Cn1c(=O)cc(C)c2c(C)nn(-c3ccccc3)c21	5.44 µM
N#C/C(=C/c1sc(N2CCOCC2)nc1-c1ccccc1)c1ccccn1	> 50 µM (inactive)
O=C(Nc1ccc(F)cc1)Nc1ccccc1OCc1cc(=O)n2ccccc2n1	9.44 µM
O=C(COC(=O)c1cc(Cl)c2c(c1)OCO2)Nc1ccc2[nH]c(=O)[nH]c2c1	2.92 µM
CCn1c(COc2cccc(C(F)(F)F)c2)nnc1SCc1ccc(Cl)cc1	9.88 µM
COC(=O)c1ccc(Cn2cnc3ccc(F)cc3c2=O)o1	3.97 µM
CCOc1ccc(NS(=O)(=O)c2ccc(NC(=O)Nc3ccccc3)cc2)cc1	16 µM
O=c1c(Nc2cccc(F)c2)nc2ccncc2n1Cc1ccccc1	26 µM
Cc1ccc([N+](=O)[O-])cc1S(=O)(=O)Nc1cc2sc(=O)oc2c2ccccc12	13.6 µM
O=C(NCCN1CCCC1)C1CCN(c2cnc(N3CCCCC3)nc2)CC1	< 0.05 µM
CC(C)(C)c1ccc(Cn2nnc3c(=O)[nH]c(C4CCN(S(=O)(=O)c5ccc(S(=O)(=O)NC6CC6)cc5)CC4)nc32)cc1	30.9 µM
CC1=C(Cn2c3cccc(=O)c-3nc3ccccc32)CCC(C)(C)C1	2.02 µM
COc1cc2c(cc1OC)-c1cc(Nc3ccc(Br)cc3)nc(=O)n1CC2	1.84 µM
Cc1ccc(C)c(S(=O)(=O)N2CCN(c3ccc4nnc(-c5ccco5)n4n3)CC2)c1	> 50 µM (inactive)
Cc1c(OCC(=O)Nc2nc3ccccc3[nH]2)ccc2c3c(c(=O)oc12)CCC3	0.541 µM

Structure (SMILES)	IC50
CCC(C)(C)C1CCC2(CC1)N=C(N)Nc1nc3ccccc3n12 (configuration not stated)	35.6 µM
CN(C)c1cc(-n2cnc(C(=O)NCc3ccccc3Cl)c2)ncn1	19.8 µM
COc1ccc(C)cc1NC(=O)C(NS(=O)(=O)c1ccc2c(c1)CCN2C(C)=O)C(C)C (configuration not stated)	> 50 µM (inactive)
O=C(CNC(=O)c1cccc(F)c1)Nc1nc2ccccc2[nH]1	24.5 µM
Cc1ccc2oc(=O)c(S(=O)(=O)N3CCCCC3)cc2c1	23.2 µM
O=S(=O)(Cc1nnc(-c2ccccc2C(F)(F)F)o1)c1ccc(Cl)cc1	> 50 µM (inactive)
Cc1cc(C)c(NC(=O)CSc2nc3nccnc3c(=O)n2Cc2ccccc2Cl)c(C)c1	3.33 µM
CC(C)Cc1nc2sc3c(NCCN4CCOCC4)ncnc3c2c2c1CCC2	0.828 µM
O=C(Nc1cccc(S(=O)(=O)N2CCCC2)c1)c1ccc2c(=O)n3c(nc2c1)CCCCC3	21.2 µM
Cc1cc(C(=O)CSc2nc3ccccc3[nH]2)c(C)n1Cc1ccco1	36.2 µM
Cc1ccc(Cn2nnc(-c3noc(-c4ccc[nH]4)n3)c2C)cc1	11.6 µM
O=C(c1cc(-c2ccncc2)n[nH]1)N1CCC(C(=O)N2CC=C(c3ccccc3)CC2)CC1	24.3 µM
O=C(NCc1ccc2c(c1)OCO2)c1[nH]nc2c1COc1ccccc1-2	7.75 µM
Cc1ccc(NC(=O)Cn2c(-n3nc(C)cc3C)nc3c(c2=O)CCCC3)c(C)c1	35.8 µM
CCC(C(=O)NCc1ccncc1)N(c1cccc(Cl)c1)S(C)(=O)=O (configuration not stated)	> 50 µM (inactive)
Cc1cc(C(F)(F)F)n(-c2ccc(NC(=O)Nc3cccc(C(F)(F)F)c3)cc2)n1	5.05 µM
CSc1ccccc1C(=O)Nc1sc2c(c1C(N)=O)CCC(C)C2 (configuration not stated)	2.78 µM
O=C(CN1C(=O)NC2(CCCCC2)C1=O)Nc1ccc([N+](=O)[O-])cc1	33.2 µM
CCCc1nc2sc3c(NCCCN4CCOCC4)ncnc3c2c2c1CCC2	0.743 µM
COc1ccc(CCNC(=O)COc2ncnc3oc(C)c(C)c23)cc1OC	> 50 µM (inactive)
O=C(COc1cccc(-n2cnnn2)c1)Nc1ccc2c(c1)OCCO2	31.4 µM
N#Cc1ccc(-c2ccc(OCC(=O)Nc3ccc4c(c3)OCO4)cc2)cc1	11.5 µM
O=C(Nc1cc(F)c2nc(N3CCOCC3)ccc2c1)c1ccc(Br)o1	37.5 µM
O=C1C[C@@H]2O[C@H](CNC(=O)[C@@H]3CN(CCN3C(=O)C3CCOCC3)C(=O)[C@@H]3C[C@@H](CN3Cc3ccc(F)c(F)c3)N1)[C@@H](O)[C@H]2O	> 50 µM (inactive)

Other lines, results leading:

IC50	Structure (SMILES)
6.72 µM	COc1cccc(Cn2nc3n(CC(C)C)c(=O)c4ccc(C(=O)NCC(C)C)cc4n3c2=O)c1
> 50 µM (inactive)	COc1ccc(-c2nnc(SCc3ccccc3C#N)o2)c(OC)c1
34.8 µM	O=C(CSc1nnc2n1CCCCC2)Nc1ccc2[nH]c(=O)[nH]c2c1
> 50 µM (inactive)	O=C(CC1C(=O)N(Cc2cccnc2)c2nc3ccccc3n21)Nc1cccc2ccccc12 (configuration not stated)
> 50 µM (inactive)	Cc1nnc(Sc2cc(C(=O)NCCN3CCCC3)c3ccccc3n2)s1
2.19 µM	COc1cc(NC(=O)c2ccc3c(c2)OCO3)ccc1-c1cc2ccccc2oc1=O
> 50 µM (inactive)	COc1ccc(/C=C/C(=O)N2CCc3ccccc32)cc1S(=O)(=O)N1CCOCC1
19.5 µM	COc1ccc(NC(=O)C2Oc3ccc(C)cc3NC2=O)cc1Cl (configuration not stated)
> 50 µM (inactive)	NS(=O)(=O)c1cccc(NC(=O)CN2CCCc3ccccc32)c1
8.61 µM	CC(C)NC(=O)Cn1ccn2nc(-c3ccc(Cl)cc3)cc2c1=O
19.6 µM	N#Cc1ccccc1Cn1c(=O)n(CCCCC(=O)NCCc2ccccc2)c(=O)c2ccccc21
inactive	Cc1ccc(-c2noc(-c3nnc(SCC(=O)NC4CCCC4)n3C)n2)cc1
10.4 µM	COc1ccccc1-c1nc(-c2nnn(Cc3cccc(F)c3)c2C)no1
15.6 µM	O=C(CNc1ccc(F)c(Cl)c1)Nc1ccc2c(c1)OCCO2
> 50 µM (inactive)	COc1ccc(Cl)cc1N1C(=O)[C@H]2[C@@H](C1=O)[C@]1(C(=O)Nc3c(C)cc(C)cc31)N1CCC[C@@H]21
1.09 µM	O=c1sc2ccccc2c(=O)n1Cc1cccc(C(F)(F)F)c1
4.81 µM	Cc1ccccc1Cn1cc(SCC(=O)Nc2ccc3c(c2)OCCO3)c2ccccc21
47.4 µM	O=C(/C=C/c1ccc(F)cc1)N1CCC(Cc2ccccc2)CC1
0.686 µM	CCOc1ccc2c(c1)c(=O)c(C(=O)c1ccc(C)cc1)cn2CC(=O)Nc1ccc(OC)c(OC)c1
7.54 µM	N#Cc1ccccc1Cn1c(=O)n(Cc2ccco2)c(=O)c2ccccc21
12.3 µM	CC1OC2CC(O)C1(O)C1=C2C(O)=C(C(N)=O)C(=N)C1=O (configuration not stated)
25.1 µM	O=C(Nc1cccc(Cl)c1)N1CCN(c2cc(C(F)(F)F)ccn2)CC1
25.2 µM	CCOc1ccc(-n2c(SCC(=O)N3CC(=O)Nc4ccccc43)nnc2-c2ccc(OC)cc2)cc1
18.4 µM	CCCCCCCCCC(CCCCCCCCCC(=O)O)O[C@H]1O[C@@H](COC(C)=O)[C@H](O)[C@@H](O)[C@H]1OC(=O)CC(=O)O (some centres not stated)

IC50	Structure (SMILES)
19 µM	Cc1cc(C(=O)NC2(O)C(=O)c3ccccc3C2=O)n(C)n1
2.32 µM	COc1cccc(/C=C/C(=O)Nc2ccc(N3CCOCC3)cc2)c1OC
15 µM	Cc1cc(N2CCC(NC(=O)NCc3ccc(F)cc3)C2=O)ccc1F (configuration not stated)
> 50 µM (inactive)	CC1OC2CC(O)C1(O)C1=C2C(=O)c2c(O)c3c(c(O)c2C1=O)[C@H](C)O[C@H]1CC(=O)O[C@@H]31 (some centres not stated)
15.1 µM	O=C(Nc1ccc2c(c1)OCCO2)Nc1ccc2nc3n(c(=O)c2c1)CCCC3
21 µM	Cc1nn(-c2ccc([N+](=O)[O-])cc2)c(C)c1-c1nc2ccccc2[nH]1
> 50 µM (inactive)	CCc1ccc(C2c3c(oc4ccccc4c3=O)C(=O)N2c2nncs2)cc1 (configuration not stated)
22.3 µM	O=S(=O)(Nc1ccc(O)cc1)c1ccc2oc3ccc(S(=O)(=O)Nc4ccc(O)cc4)cc3c2c1
> 50 µM (inactive)	O=C(Cc1cccnc1)Nc1ccc(N2CCN(C3CCCCC3)C2=O)nc1
19.1 µM	CC(=O)Nc1ccc(-n2cnc(C(=O)NCc3ccc(C)cc3)c2)nc1
35 µM	O=C(CCCC(=O)c1ccccc1)Nc1ccc(F)cc1
> 50 µM (inactive)	Cc1ccc(S(=O)(=O)Nc2ccccc2SCCS(=O)(=O)c2ccc(Cl)cc2)cc1
10.2 µM	Cn1c(=O)/c(=C/c2ccccc2)[nH]c(=O)/c1=C/c1ccccc1
41.9 µM	N#Cc1cc(C(=O)c2ccc(Cl)cc2)c[nH]1
12.2 µM	Cn1cc(-c2noc(Cc3cccc(C(F)(F)F)c3)n2)ccc1=O
> 50 µM (inactive)	O=C(NCc1ccc2c(c1)OCO2)c1nc(-c2ccccc2)n(-c2ccccc2)n1
> 50 µM (inactive)	N#Cc1ccc(NC(=O)COC(=O)c2ccc3ccccc3n2)cc1
> 50 µM (inactive)	Cc1ccc2c(c1C)NC(=O)[C@]21[C@@H]2C(=O)N(c3cccc(Cl)c3)C(=O)[C@@H]2[C@@H]2CCCN21
6.63 µM	CCCCNc1nc2c(-c3ccccc3)nnn2c2ccccc12
16.5 µM	O=C(Cc1nnc2c(-c3nc(C4CC4)no3)cccn12)Nc1ccccc1
24.9 µM	COc1ccc(NS(=O)(=O)c2ccc(NC(=O)Nc3ccc(Cl)cc3)cc2)cc1
18.4 µM	O=C1Oc2nc3ccccc3cc2CN1Cc1ccco1
0.516 µM	O=c1ccc(-c2noc(Cc3c(F)cccc3Cl)n2)c[nH]1
15.3 µM	Cc1cccc(C(=O)Nc2cccc(SC(C(=O)Nc3ccc(Cl)c(C(=O)O)c3)c3ccccc3)c2)c1 (configuration not stated)
